Measured values published in US20240374605A1, “METHODS OF TREATING CANCER” (Foghorn Therapeutics Inc., priority 2021, published 2024).
Each block holds one compound with its values, some of them ahead of it.

Experiments:
22RV1 = test: 3-day growth inhibition (Cell-titer glow), 22RV1; format: cell-based; conditions: Homo sapiens, 72 h; 22RV1, Prostate, 3 days; read-out: Absolute IC50
[1] = tested on: uveal melanoma, prostate cancer, acute leukemia and histocytic lymphoma cell lines; test: 3-day growth inhibition (Cell-titer glow), all cell lines of Example 17; format: cell-based
[2] = tested on: 92-1 uveal melanoma cells; test: Uveal melanoma tumor growth inhibition in vivo, subcutaneous xenograft; design: species or system Nude mice
92-1 = test: 3-day growth inhibition (Cell-titer glow), 92-1; format: cell-based; conditions: 72 h; 92-1, Uveal melanoma, 3 days; read-out: Absolute IC50
THP1 = test: 3-day growth inhibition (Cell-titer glow), THP1; format: cell-based; conditions: Homo sapiens, THP-1, 72 h; THP1, Acute monocytic leukemia, 3 days; read-out: Absolute IC50
U937 = test: 3-day growth inhibition (Cell-titer glow), U937; format: cell-based; conditions: Homo sapiens, U-937, 72 h; U937, Histiocytic lymphoma, 3 days; read-out: Absolute IC50
MP46 = test: 3-day growth inhibition (Cell-titer glow), MP46; format: cell-based; conditions: 72 h; MP46, Uveal melanoma, 3 days; read-out: Absolute IC50
MP41 = test: 3-day growth inhibition (Cell-titer glow), MP41; format: cell-based; conditions: 72 h; MP41, Uveal melanoma, 3 days; read-out: Absolute IC50
[3] = Body weight and tolerability in tumor-bearing mice; format: in vivo; conditions: all treatments, once daily oral gavage, 3 weeks
MEL202 = test: 3-day growth inhibition (Cell-titer glow), MEL202; format: cell-based; conditions: 72 h; MEL202, Uveal melanoma, 3 days; read-out: Absolute IC50
MP38 = test: 3-day growth inhibition (Cell-titer glow), MP38; format: cell-based; conditions: 72 h; MP38, Uveal melanoma, 3 days; read-out: Absolute IC50
EOL1 = test: 3-day growth inhibition (Cell-titer glow), EOL1; format: cell-based; conditions: Homo sapiens, 72 h; EOL1, Acute myeloid leukemia, 3 days; read-out: Absolute IC50
BRG1 = biological target: T1, BRG1 (Homo sapiens, UniProt P51532); test: ATPase catalytic activity of BRG-1, in vitro biochemical assay using ADP-Glo; conditions: 30 nM BRG-1, 400 μM ATP, 1 hour room temperature; read-out: IP50 against BRG1
T1 construct: made in house; host or cells: High Five insect cells

[4] = tested on: Uveal melanoma cell lines, 92-1 or MP41; test: 3-day growth inhibition compared with clinical PKC and MEK inhibitors (Cell-titer glow); format: cell-based; conditions: 0 to 10 μM, 3 days
[5] = tested on: Uveal melanoma cell lines (92-1, MP41, MP38, MP46) and non-small cell lung cancer cells (NCIH1299); test: 3-day growth inhibition (Cell-titer glow), Example 12; format: cell-based; conditions: 0 to 10 μM, 3 days; FIG. 6
[6] = tested on: PKC inhibitor (PKCi)-resistant MP41 uveal melanoma cells; test: 7-day growth inhibition assay, PKC inhibitor-resistant cells; format: cell-based
[7] = tested on: uveal melanoma, hematologic cancer, prostate cancer, breast cancer, and Ewing's sarcoma cell lines; conditions: breast cancer and Ewing's sarcoma lines vs the other tested cell lines, 0 to 10 μM, FIG. 4
parental MP41 cells = test: 7-day growth inhibition assay, parental cells; conditions: parental MP41, 7-day; FIG. 10

T1 sequence (P51532 whole entry): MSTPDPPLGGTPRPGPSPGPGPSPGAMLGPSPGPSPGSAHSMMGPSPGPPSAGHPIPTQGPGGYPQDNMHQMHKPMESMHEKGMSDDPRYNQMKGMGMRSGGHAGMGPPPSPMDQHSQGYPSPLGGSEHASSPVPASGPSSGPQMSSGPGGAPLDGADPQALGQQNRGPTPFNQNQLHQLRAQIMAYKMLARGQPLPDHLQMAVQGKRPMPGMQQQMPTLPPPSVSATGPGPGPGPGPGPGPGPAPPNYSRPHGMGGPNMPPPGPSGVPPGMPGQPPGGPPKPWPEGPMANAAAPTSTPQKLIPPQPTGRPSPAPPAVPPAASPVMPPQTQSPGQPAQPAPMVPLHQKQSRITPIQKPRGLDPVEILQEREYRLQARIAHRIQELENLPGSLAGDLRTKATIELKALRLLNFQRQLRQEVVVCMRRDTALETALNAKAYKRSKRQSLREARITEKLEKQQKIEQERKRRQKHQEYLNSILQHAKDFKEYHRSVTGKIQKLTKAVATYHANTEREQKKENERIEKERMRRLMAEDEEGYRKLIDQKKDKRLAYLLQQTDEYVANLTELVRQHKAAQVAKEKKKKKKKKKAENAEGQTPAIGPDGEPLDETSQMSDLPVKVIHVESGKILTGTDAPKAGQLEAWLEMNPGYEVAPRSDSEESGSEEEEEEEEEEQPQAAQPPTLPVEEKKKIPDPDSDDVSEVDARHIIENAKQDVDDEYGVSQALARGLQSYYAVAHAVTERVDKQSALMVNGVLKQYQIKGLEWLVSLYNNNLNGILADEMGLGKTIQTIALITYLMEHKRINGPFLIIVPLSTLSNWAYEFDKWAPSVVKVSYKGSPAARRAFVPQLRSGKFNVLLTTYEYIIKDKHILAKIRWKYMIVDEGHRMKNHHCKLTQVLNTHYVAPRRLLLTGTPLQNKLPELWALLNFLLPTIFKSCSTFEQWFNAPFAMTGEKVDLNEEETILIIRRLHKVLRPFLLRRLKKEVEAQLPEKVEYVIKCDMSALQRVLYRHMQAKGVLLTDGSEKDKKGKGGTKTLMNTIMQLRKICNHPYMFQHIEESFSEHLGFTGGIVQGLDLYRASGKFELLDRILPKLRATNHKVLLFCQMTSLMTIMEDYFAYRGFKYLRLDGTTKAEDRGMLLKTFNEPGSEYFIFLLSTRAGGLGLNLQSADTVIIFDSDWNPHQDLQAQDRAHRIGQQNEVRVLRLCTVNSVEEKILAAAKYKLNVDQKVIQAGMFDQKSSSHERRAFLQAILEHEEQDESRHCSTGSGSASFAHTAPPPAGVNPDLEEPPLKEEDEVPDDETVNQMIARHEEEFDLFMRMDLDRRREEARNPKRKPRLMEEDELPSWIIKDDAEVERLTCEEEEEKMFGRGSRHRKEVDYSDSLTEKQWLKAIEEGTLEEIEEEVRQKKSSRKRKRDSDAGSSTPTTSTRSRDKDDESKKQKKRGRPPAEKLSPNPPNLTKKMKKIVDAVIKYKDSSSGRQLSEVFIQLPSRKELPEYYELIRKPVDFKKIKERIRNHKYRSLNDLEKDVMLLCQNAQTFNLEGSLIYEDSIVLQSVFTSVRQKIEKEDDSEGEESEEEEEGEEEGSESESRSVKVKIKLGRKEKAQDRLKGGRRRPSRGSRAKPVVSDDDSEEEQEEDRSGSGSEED

SMILES: COC[C@H](NC(=O)c1ccn(S(C)(=O)=O)c1)C(=O)Nc1nc(-c2cccc(N3C[C@@H](C)O[C@@H](C)C3)n2)cs1 [N—((S)-1-((4-(6-(cis-2,6-dimethylmorpholino)pyridin-2-yl)thiazol-2-yl)amino)-3-methoxy-1-oxopropan-2-yl)-1-(methylsulfonyl)-1H-pyrrole-3-carboxamide]
IC50 (22RV1): 29.7 nM
IC50 ([1]; 72 h, 3 days of compound treatment, read-out: absolute IC50 values, all cell lines tested): < 350 nM
growth inhibition ([1]; 3 days, 0 to 2 μM (uveal melanoma lines) or 0 to 1 μM (other lines), FIG. 14): potent growth inhibition
tumor response at the highest dose ([2]; […] once daily oral gavage): tumor regression
tumor growth inhibition ([2]; once daily oral gavage, increasing doses, 3 weeks): tumor growth inhibition in a dose-dependent manner
IC50 (92-1): 0.3 nM
IC50 (THP1): 345 nM
IC50 (U937): 14.8 nM
IC50 (MP46): 113 nM
IC50 (MP41): 11.8 nM
tolerability [3]: well tolerated
IC50 (MEL202): 62.3 nM
IC50 (MP38): 31.5 nM
IC50 (EOL1): 75.5 nM

IC50 (BRG1): 19.3 nM
SMILES: CSOC[C@H](NC(=O)c1ccc(N)cc1)C(=O)Nc1nc(-c2cccc(-c3ccncc3)c2)cs1 [Compound A]
growth inhibition compared with the clinical PKC (LXS196) and MEK (Selumetinib) inhibitors [4]: comparable growth inhibition
onset of growth inhibition compared with the clinical PKC and MEK inhibitors [4]: faster onset of inhibition

SMILES: CSCC[C@H](NC(=O)c1ccn(S(C)(=O)=O)c1)C(=O)Nc1nc(-c2cccc(-c3ccncc3)c2)cs1 [Compound B]
growth inhibition [5]: potent growth inhibition
growth inhibition ([6]; PKCi-resistant MP41, 7-day, FIG. 10): strong growth inhibition
growth inhibition compared with the clinical PKC (LXS196) and MEK (Selumetinib) inhibitors [4]: more potent effects on growth inhibition
onset of growth inhibition compared with the clinical PKC and MEK inhibitors [4]: faster onset of growth inhibition
sensitivity of cell lines to BRG1/BRM inhibition [7]: more sensitive
growth inhibition (parental MP41 cells): strong growth inhibition

SMILES: CC1(N)CCN(c2cccnc2NC(=O)c2nc(-c3ncccc3C(F)(F)F)cnc2N)CC1 [LXS196, reference compound]
sensitivity of PKCi-resistant cells relative to parental MP41 cells ([6]; 7-day, FIG. 9 and FIG. 10): could tolerate growth at higher concentrations
